Values quoted from earlier work in patent US20220218877A1, “C[…] COMPOSITIONS” ([…], priority 2019, published 2022).

Details: depending upon the conditions

Molecule | Solubility in aqueous solutions
cannabidiol [CBD] | a few micrograms/ml or less
CCCCCc1cc(O)c2c(c1)OC(C)(C)c1ccc(C)cc1-2 [cannabinol] | a few micrograms/ml or less
CCCCCc1cc(O)c2c(c1)OC(C)(C)[C@@H]1CCC(C)=C[C@@H]21 [THC, tetrahydrocannabinol] | a few micrograms/ml or less
